Results on 26 molecules are retold here after patent US9260425B2 (Genetech, Inc., priority 2011, dated 2016).

SMILES strings stand for the structures.

Pim-1, sequence (P11309 whole entry): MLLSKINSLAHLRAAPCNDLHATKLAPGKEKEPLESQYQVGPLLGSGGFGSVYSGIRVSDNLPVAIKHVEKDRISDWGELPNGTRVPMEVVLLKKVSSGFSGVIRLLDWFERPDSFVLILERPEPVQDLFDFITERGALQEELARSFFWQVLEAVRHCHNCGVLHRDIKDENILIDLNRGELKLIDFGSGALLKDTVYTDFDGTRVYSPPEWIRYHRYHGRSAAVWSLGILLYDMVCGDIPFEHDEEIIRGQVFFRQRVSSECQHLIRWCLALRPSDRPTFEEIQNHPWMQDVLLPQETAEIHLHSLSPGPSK

The target of the test is Pim-1 (Homo sapiens (Human), UniProt P11309). As to the kind of experiment: Pim kinase binding activity assay (Example 901), PIM-1 enzyme, Caliper microfluidic peptide phosphorylation. The class given is biochemical. The following applies: 20 pM PIM-1, 10 μM ATP, 1 μM FAM-peptide, 90 minutes at room temperature. The procedure, abridged:
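PIM-1 at 20 pM phosphorylated 1 μM FAM-labelled Pim peptide with 10 μM ATP in HEPES pH 7.2, MgCl2, Tween 20 and DTT for 90 min at room temperature. EDTA stopped the reaction, and product and substrate were resolved by microfluidic electrophoresis (ex 488/em 530 nm). Ki was derived from substrate conversion.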
Usually Ki stands for a dissociation constant, usually derived from enzyme kinetics or from competition with a known ligand. The low end stands for a stronger hold on the target, the high end for a looser hold on the target. On to `CCn1cc(-c2cc3c(-c4cccc(NC5CCCC(N)C5)n4)n[nH]c3cn2)cn1` (centres unmarked) [Example 461, N1-(6-(5-(1-ethyl-1H-pyrazol-4-yl)-1H-pyrazolo[3,4-c]pyridin-3-yl)pyridin-2-yl)cyclohexane-1,3-diamine], for which the Ki was 0.0593 nM. Molecule `NC1CCN(Cc2n[nH]c3cnc(-c4cn[nH]c4)cc23)CC1` [Example 108, l-((5-(1H-pyrazol-4-yl)-1H-pyrazolo[3,4-c]pyridin-3-yl)methyl)piperidin-4-amine] showed a Ki of 1100 nM. The value for `N[C@@H]1CCC[C@H](Nc2cccc(-c3n[nH]c4cnc(-c5cccnc5)cc34)n2)C1` [Example 341, (1S,3R)-N1-(6-(5-(pyridin-3-yl)-1H-pyrazolo[3,4-c]pyridin-3-yl)pyridin-2-yl)cyclohexane-1,3-diamine] was 0.077 nM; that for `Cn1cc(-c2cc3c(-c4ccc(Br)c(N5CCC(N)CC5)n4)n[nH]c3cn2)cn1` [Example 392, 1-(3-bromo-6-(5-(1-methyl-1H-pyrazol-4-yl)-1H-pyrazolo[3,4-c]pyridin-3-yl)pyridin-2-yl)piperidin-4-amine] was 0.03 nM.

`Cc1ccc(-c2n[nH]c3cnc(-c4cccnc4)cc23)nc1` [Example 275, 3-(5-methylpyridin-2-yl)-5-(pyridin-3-yl)-1H-pyrazolo[3,4-c]pyridine] returned a Ki of 6.92 nM.

The molecule `N[C@H]1CCCN(c2ccc(-c3n[nH]c4cnc(-c5cccnc5)cc34)cn2)C1` [Example 196, (S)-1-(5-(5-(pyridin-3-yl)-1H-pyrazolo[3,4-c]pyridin-3-yl)pyridin-2-yl)piperidin-3-amine] displayed a Ki of 0.774 nM. The molecule `c1ccc(-c2n[nH]c3cnc(-c4cncs4)cc23)cc1` [Example 323, 5-(3-phenyl-1H-pyrazolo[3,4-c]pyridin-5-yl)thiazole] showed a Ki of 33 nM. The value for `N[C@@H]1CCCN(c2cccc(-c3n[nH]c4cnc(N5CCOC5=O)cc34)n2)C1` [Example 370, (R)-3-(3-(6-(3-aminopiperidin-1-yl)pyridin-2-yl)-1H-pyrazolo[3,4-c]pyridin-5-yl)oxazolidin-2-one] was 180 nM; that for `CCn1cc(-c2cc3c(-c4cccc(N5CCNCC(F)(F)C5)n4)n[nH]c3cn2)cn1` [Example 447, 3-(6-(6,6-difluoro-1,4-diazepan-1-yl)pyridin-2-yl)-5-(1-ethyl-1H-pyrazol-4-yl)-1H-pyrazolo[3,4-c]pyridine] was 0.029 nM; that for `CCc1ccc(-c2n[nH]c3cnc(-c4cnn(C)c4)cc23)nc1N1CCC[C@H](N)C1` [Example 429, (S)-1-(3-ethyl-6-(5-(1-methyl-1H-pyrazol-4-yl)-1H-pyrazolo[3,4-c]pyridin-3-yl)pyridin-2-yl)piperidin-3-amine] was 0.022 nM. The value for `CC(C)(CN)Cn1cc(-c2n[nH]c3cnc(-c4cccnc4)cc23)ccc1=O` [Example 379, 1-(3-amino-2,2-dimethylpropyl)-5-(5-(pyridin-3-yl)-1H-pyrazolo[3,4-c]pyridin-3-yl)pyridin-2(1H)-one] was 1.29 nM; that for `C=C(C)c1ccc(-c2n[nH]c3cnc(-c4cnn(C)c4)cc23)nc1N1CCC[C@H](N)C1` [Example 414, (S)-1-(6-(5-(1-methyl-1H-pyrazol-4-yl)-1H-pyrazolo[3,4-c]pyridin-3-yl)-3-(prop-1-en-2-yl)pyridin-2-yl)piperidin-3-amine] was 0.028 nM.

Regarding `CCn1cc(-c2cc3c(-c4cccc(N5CCC[C@@H](NC)C5)n4)n[nH]c3cn2)cn1` [Example 482, (R)-1-(6-(5-(1-ethyl-1H-pyrazol-4-yl)-1H-pyrazolo[3,4-c]pyridin-3-yl)pyridin-2-yl)-N-methylpiperidin-3-amine], affinity was put at a Ki of 0.147 nM. The value for `CCn1cc(-c2cc3c(-c4cccc(N5C[C@H]6CNC[C@H]6C5)n4)n[nH]c3cn2)cn1` [Example 395] was 0.404 nM; that for `Cn1cc(-c2cc3c(-c4ccc(Br)c(N5CCOCC5)n4)n[nH]c3cn2)cn1` [Example 449, 4-(3-bromo-6-(5-(1-methyl-1H-pyrazol-4-yl)-1H-pyrazolo[3,4-c]pyridin-3-yl)pyridin-2-yl)morpholine] was 0.191 nM; that for `Cc1ccc(-c2n[nH]c3cnc(-c4cccnc4)cc23)nc1N1CC(N2CCNC(=O)C2)C1` [Example 426, 4-(1-(3-methyl-6-(5-(pyridin-3-yl)-1H-pyrazolo[3,4-c]pyridin-3-yl)pyridin-2-yl)azetidin-3-yl)piperazin-2-one] was 0.46 nM. The value for `CCn1cc(-c2cc3c(-c4cccc(N5CCN(C(C)=O)CC5)n4)n[nH]c3cn2)cn1` [Example 472, 1-(4-(6-(5-(1-ethyl-1H-pyrazol-4-yl)-1H-pyrazolo[3,4-c]pyridin-3-yl)pyridin-2-yl)piperazin-1-yl)ethanone] was 0.107 nM; that for `CN1CCN(c2cc3c(-c4cnn(C)c4)n[nH]c3cn2)CC1=O` [Example 331, 1-methyl-4-(3-(1-methyl-1H-pyrazol-4-yl)-1H-pyrazolo[3,4-c]pyridin-5-yl)piperazin-2-one] was 721 nM. The value for `CNC(=O)C1(N)CCN(c2cccc(-c3n[nH]c4cnc(-c5cccnc5)cc34)n2)CC1` [Example 236, 4-amino-N-methyl-1-(6-(5-(pyridin-3-yl)-1H-pyrazolo[3,4-c]pyridin-3-yl)pyridin-2-yl)piperidine-4-carboxamide] was 0.353 nM. `O[C@@H]1CCCN(c2cccc(-c3n[nH]c4cnc(-c5cccnc5)cc34)n2)C1` [Example 271, (R)-1-(6-(5-(pyridin-3-yl)-1H-pyrazolo[3,4-c]pyridin-3-yl)pyridin-2-yl)piperidin-3-ol] gave a Ki of 0.073 nM.

In turn, `c1ccc(-c2n[nH]c3cnc(-c4cnccn4)cc23)cc1` [Example 214, 3-phenyl-5-(pyrazin-2-yl)-1H-pyrazolo[3,4-c]pyridine] yielded an inhibitory constant (Ki) of 41.6 nM. The value for `Cn1cc(-c2cc3c(-c4ccc(C5CC5)c(N5CCC[C@H](N)C5)n4)n[nH]c3cn2)cn1` [Example 486, (S)-1-(3-cyclopropyl-6-(5-(1-methyl-1H-pyrazol-4-yl)-1H-pyrazolo[3,4-c]pyridin-3-yl)pyridin-2-yl)piperidin-3-amine] was 0.009 nM. The value for `NCC1CCN(c2cncc(-c3cc4c(-c5ccccc5F)n[nH]c4cn3)c2)CC1` [Example 167, (1-(5-(3-(2-fluorophenyl)-1H-pyrazolo[3,4-c]pyridin-5-yl)pyridin-3-yl)piperidin-4-yl)methanamine] was 1.71 nM; that for `c1ccc(-c2n[nH]c3cnc(-c4cccnc4)cc23)nc1` [Example 204, 3-(pyridin-2-yl)-5-(pyridin-3-yl)-1H-pyrazolo[3,4-c]pyridine] was 11.6 nM; that for `Cn1cc(-c2cc3c(-c4cccc(N5C[C@H](N)C[C@@H](F)C5)n4)n[nH]c3cn2)cn1` [Example 517, (3R,5R)-5-fluoro-1-(6-(5-(1-methyl-1H-pyrazol-4-yl)-1H-pyrazolo[3,4-c]pyridin-3-yl)pyridin-2-yl)piperidin-3-amine] was 1.17 nM. The value for `CCn1cc(-c2cc3c(-c4cccc(N5CCNC(CO)C5)n4)n[nH]c3cn2)cn1` (centres unmarked) [Example 463, (4-(6-(5-(1-ethyl-1H-pyrazol-4-yl)-1H-pyrazolo[3,4-c]pyridin-3-yl)pyridin-2-yl)piperazin-2-yl)methanol] was 0.084 nM.
